Measurements taken from patent publication US12297203B2, “Pyrrolopyrimidine ITK inhibitors” (ACLARIS THERAPEUTICS, INC., priority 2018, dated 2025).
Where two headings read alike, the source gives them in different places.

Tests used:
ITK = ITK (Homo sapiens (Human), UniProt Q08881); experiment: ITK inhibitor binding potency (LanthaScreen competitive binding assay); conditions: read-out: ITK Inh. IC50
Text: The ability of candidate compounds to interact with ITK is quantitated by a competitive binding assay using the LanthaScreen technology developed by Life Technologies. This assay is based on the binding of a proprietary, Alexa Fluor® 647-labeled, ATP-competitive kinase inhibitor (kinase tracer-236) to the ITK expression construct in the presence of a Europium-conjugated antibody, resulting in a FRET (fluorescence resonance energy transfer) signal. Displacement of the kinase tracer by compound results in a lower emission ratio upon excitation of the Europium chelate. Candidate compounds are designed as potential irreversible inhibitors of ITK, capable of ligating to an active site cysteine residue resulting in time dependent covalent binding. The time dependent nature of irreversible inhibition is investigated by performing the binding assay with and without a pre-incubation of compound and ITK. […] The inhibitory potency of candidate compounds is measured in 20 mM HEPES pH 7.5, 10 mM MgCl2, 0.01% BSA, 0.0005% Tween-20, and 2% DMSO in the presence of 10 nM ITK, 2 nM Eu-anti-GST antibody, and 50 nM kinase tracer-236 using a 384-well plate format. Background signal is defined in the absence of ITK and uninhibited signal is defined in the presence of vehicle (2% DMSO) alone. Compounds were evaluated in an 11 point dose-response ranging from 20 uM to 0.34 nM. The binding assays are performed under two preincubation conditions to evaluate time dependence of inhibition. For the pre-incubation assay, ITK and Eu-anti-GST antibody are pre-incubated with compound or vehicle for two hours prior to the addition of kinase tracer. The non-preincubated assay is run under conditions where ITK and Eu-anti-GST antibody are added to a mixture of compound and kinase tracer. IC50 values of compounds are determined using a 4 parameter logistical fit of emission ratio as a function of the concentration of compound.

JAK3 = JAK3 (Homo sapiens (Human), UniProt P52333); experiment: JAK3 enzyme activity assay (Caliper mobility shift); format: biochemical; conditions: ATP at Km level; read-out: JAK3 Inh. IC50
Chain of JAK3 (P52333 781-1124): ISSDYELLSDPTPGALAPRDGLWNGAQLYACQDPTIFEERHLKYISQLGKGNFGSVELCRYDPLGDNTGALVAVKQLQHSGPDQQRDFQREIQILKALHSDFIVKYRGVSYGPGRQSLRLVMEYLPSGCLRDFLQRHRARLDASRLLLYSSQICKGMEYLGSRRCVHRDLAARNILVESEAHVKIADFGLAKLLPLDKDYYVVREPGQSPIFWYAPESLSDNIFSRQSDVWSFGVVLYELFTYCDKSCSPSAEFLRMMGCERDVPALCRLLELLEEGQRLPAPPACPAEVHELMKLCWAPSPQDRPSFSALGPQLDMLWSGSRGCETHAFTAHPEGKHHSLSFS
Text: The ability of candidate compounds to interact with JAK3 is quantitated by a mobility shift assay using an LC3000 instrument developed by Caliper Life Sciences. This assay is based on mobility shift electrophoresis, in which fluorescently labelled product and fluorescently labelled substrate peaks are separated and detected independently. JAK3 product/substrate separation is obtained using the following instrument settings: Pressure=−1.4 psi, Downstream voltage=−2550V and Upstream voltage=−800V. The inhibitory potency of candidate compounds of JAK3 is measured in 20 mM HEPES pH 7.5, 10 mM MgCl2, 0.01% BSA, 0.0005% Tween-20, and 2% DMSO in the presence of 2.5 nM JAK3 (Life Technologies Catalog #PV3855), […] (Anaspec Catalog #AS-64106) and […] (Km level) using a 384-well plate format. Background signal is defined in the absence of enzyme and uninhibited signal is defined in the presence of vehicle (2% DMSO) alone. Compounds were evaluated in an 11 point dose-response ranging from […] to 0.34 nM. IC50 values of compounds are determined using a 4 parameter logistical fit of emission ratio as a function of the concentration of compound.

[1] = tested on: ITK phosphorylation of its substrate, PLCγ1, at Y783; experiment: ITK target modulation assay (PLCγ1 Y783 phosphorylation, anti-CD3 stimulated Jurkat T cells); format: cell-based; conditions: anti-CD3 Dynabeads stimulation, read-out: PLC-γ Inh. IC50
Procedure: Target modulation was based upon the ability of a compound to inhibit ITK phosphorylation of its substrate, PLCγ1, at Y783. Human Jurkat T cells (ATCC TIB-152) were plated in V-bottom 96 well plates at 400,000 cells/well in 80 μL medium (RPMI1640 with 10% heat inactivated serum and 55 μM 2-mercaptoethanol and supplemented with glutamine/penicillin/streptomycin). Compounds were added as 10 μL of 10× working stock solutions in medium with 1% DMSO (or medium with 1% DMSO for controls) and placed in a 37° C. incubator with gentle shaking for 1 hour. Stimulation was carried out using anti-CD3 Dynabeads (Invitrogen catalog #1151D) to activate the T cell receptor and mimic antigen presenting cells. Beads were washed and resuspended in medium at 1.84×10^8 beads/ml. Beads were added rapidly to all compound containing and stimulation only wells at 10 μL/well (bead:cell=2:1) with gentle mixing of the bead source between each addition. Wells designated ‘unstimulated’ received 10 μL of media only. The plate was immediately sealed with a plate seal and cells pelleted at 400× g for 4 minutes. Media was removed using a multichannel aspirator, 25 μL of cold hypotonic lysis buffer (VWR M334-100 ml) plus 1×HALT Protease Inhibitor Cocktail (ThermoFisher #78437), 1× Phosphatase Inhibitor Cocktail 2 (Sigma Aldrich #P5726), 1× Phosphatase Inhibitor Cocktail 3 (Sigma Aldrich #P0044) and 2 mM PMSF was added per well. Cells were incubated on ice for 30 minutes to swell the cells then lysed by pipetting 20 times using a multichannel pipet. The plates were then resealed and centrifuged for 5 minutes at 400× g to pellet the cellular debris. Two μL of the soluble component of each sample was spotted onto nitrocellulose and allowed to dry for 30 minutes. Nitrocellulose was wet in 1× Tris Buffer Saline (20 mM Tris pH7.5, 150 mM NaCl) then blocked in LiCOR Odyssey Blocking Buffer (TBS) (LiCOR #927-50000) for 1 hour at room temperature with rocking. Following blocking, nitrocellulose was incubated in LiCOR Odyssey Blocking Buffer (TBS) plus 0.2% Tween20 plus anti-phospho-PLCγ1 (Y783) antibody (CST #2821S) at 1:1000 and anti-PLCγ1 (Abcam #41433) at 1:5000 with gentle rocking overnight at 4° C. Nitrocellulose was then washed four times for 5 minutes each with TBS plus 0.1% Tween20 (TBST) then incubated in LiCOR Odyssey Blocking Buffer (TBS) plus 0.2% Tween20 plus secondary antibodies IRDye 800CW (LiCOR 926-32211) and IRDye 680RD (LiCOR 926-68070) both at 1:15,000 with gentle rocking at room temperature in the dark for 1 hour. Nitrocellulose was then washed four times for 5 minutes each with TBST at room temperature in the dark. A final rinse with TBS was done prior to imaging and quantifying using the LiCOR Odyssey Imager and software respectively.

[2] = tested on: JAK1/3 phosphorylation of its substrate, STAT5, at Y694; experiment: JAK1/3 target modulation assay (IL-2 stimulated STAT5 Y694 phosphorylation in PBMC); format: cell-based; conditions: Primary human peripheral blood mononuclear cells, IL-2 25 ng/mL, read-out: IL2-STAT5 Inh. IC50
Procedure: Target modulation was based upon the ability of a compound to inhibit JAK1/3 phosphorylation of its substrate, STAT5, at Y694. Primary human peripheral blood mononuclear cells were plated in V-bottom 96 well plates at 200,000 cells/well in 120 μL medium (RPMI-1640 with 10% fetal bovine serum, 10 mM HEPES buffer, 12.2 mM 2-mercaptoethanol, and supplemented with glutamine/penicillin/streptomycin). Compounds were added as 15 μL of 10× working stock solutions in medium with 1% DMSO (or medium with 1% DMSO for controls) and placed in a 37° C. incubator with gentle shaking for 1 hour. Stimulation was carried out using recombinant human IL-2 (R&D Systems #202-IL-050) to activate JAK1/3. IL-2 stock solution was diluted in media to 250 ng/mL and was added rapidly to all compound containing and stimulation only wells at 15 μL/well (final concentration=25 ng/mL). Wells designated ‘unstimulated’ received 15 μL of media only. The plate was placed back in a 37° C. incubator with gentle shaking for 5 minutes. After stimulation, the plates were immediately sealed with a plate seal, and cells pelleted at 400× g for 5 minutes. Media was removed using a multichannel aspirator, and 75 μL of cold Tris lysis buffer (MSD #R60TX-3) plus 1× Protease Inhibitor Solution (MSD #R70AA-1), 1× Phosphatase Inhibitor I (MSD #R70AA-1), and 1× Phosphatase Inhibitor II (MSD #R70AA-1) was added per well. Cells were incubated at 4° C. with gentle shaking for at least 30 minutes to allow for complete lysis. The plates were removed from 4° C., and 25 μL of lysate from each well was added to the corresponding well on the MSD plate. Samples were analyzed by either an MSD multiplex kit for Phospho-STAT5a,b/Total-STAT5a,b (MSD #K15163D) or an MSD single-plex kit for Phospho-STAT5a,b (MSD #K150IGD). The protocols for the respective kits were followed, and the plates were read on the MSD SECTOR S 600.

Chain of ITK (Q08881 whole entry): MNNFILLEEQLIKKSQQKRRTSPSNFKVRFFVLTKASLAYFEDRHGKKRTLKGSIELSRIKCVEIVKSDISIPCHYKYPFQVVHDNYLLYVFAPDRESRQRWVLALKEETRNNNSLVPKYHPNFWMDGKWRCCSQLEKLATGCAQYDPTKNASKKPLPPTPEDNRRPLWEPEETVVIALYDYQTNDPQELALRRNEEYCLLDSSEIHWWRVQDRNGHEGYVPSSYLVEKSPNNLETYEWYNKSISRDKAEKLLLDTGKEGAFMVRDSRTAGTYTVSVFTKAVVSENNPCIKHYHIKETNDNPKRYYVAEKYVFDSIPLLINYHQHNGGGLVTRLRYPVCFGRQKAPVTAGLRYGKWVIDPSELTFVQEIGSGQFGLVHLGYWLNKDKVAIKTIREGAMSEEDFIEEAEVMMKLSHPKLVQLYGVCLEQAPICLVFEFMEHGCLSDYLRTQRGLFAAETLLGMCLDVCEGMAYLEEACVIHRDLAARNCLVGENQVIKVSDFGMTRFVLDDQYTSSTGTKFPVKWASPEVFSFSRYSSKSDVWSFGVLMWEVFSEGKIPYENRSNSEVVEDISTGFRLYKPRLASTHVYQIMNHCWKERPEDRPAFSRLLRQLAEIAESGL

Row | Compound | IC50 (ITK) [µM] | IC50 (JAK3) [µM] | IC50 ([1]; Homo sapiens, Jurkat) [µM] | IC50 ([2]; Homo sapiens, PBMC) [µM] | IC50 [2] [µM] | IC50 ([1]; Human Jurkat T cells) [µM]
1 | C=CC(=O)N1C[C@H](Nc2ncnc3[nH]cc(CC4CCC(CC)C4)c23)CC[C@@H]1C (mixture of isomers) [Example 36, 1-((2S,5R)-5-((5-((3-ethylcyclopentyl)methyl)-7H-pyrrolo[2,3-d]pyrimidin-4-yl)amino)-2-methylpiperidin-1-yl)prop-2-en-1-one] | ≤ 0.01 | ≤ 0.01 | 0.1 to 1 | 0.1 to 1 | – | –
2 | C=CC(=O)N1C[C@H](Nc2ncnc3[nH]cc(C4CC4COC)c23)CC[C@@H]1C (mixture of isomers) [Example 44, 1-((2S,5R)-5-((5-(2-(methoxymethyl)cyclopropyl)-7H-pyrrolo[2,3-d]pyrimidin-4-yl)amino)-2-methylpiperidin-1-yl)prop-2-en-1-one] | ≤ 0.01 | ≤ 0.01 | ≤ 0.1 | 0.1 to 1 | – | –
3 | C=CC(=O)N1C[C@H](Nc2ncnc3[nH]cc(C4CC4(F)F)c23)CC[C@@H]1C (mixture of isomers) [Example 47, 1-((2S,5R)-5-((5-(2,2-difluorocyclopropyl)-7H-pyrrolo[2,3-d]pyrimidin-4-yl)amino)-2-methylpiperidin-1-yl)prop-2-en-1-one] | ≤ 0.01 | ≤ 0.01 | ≤ 0.1 | ≤ 0.1 | – | –
4 | C[C@H]1CC[C@@H](Nc2ncnc3[nH]cc(C4CC4(F)F)c23)CN1C(=O)/C=C/CN(C)C (mixture of isomers) [Example 59, (E)-1-((2S,5R)-5-((5-(2,2-difluorocyclopropyl)-7H-pyrrolo[2,3-d]pyrimidin-4-yl)amino)-2-methylpiperidin-1-yl)-4-(dimethylamino)but-2-en-1-one] | ≤ 0.01 | 0.01 to 0.1 | ≤ 0.1 | – | – | –
5 | C=CC(=O)N1CCC[C@@H](Nc2ncnc3[nH]cc(C(=O)[C@H]4CCOC4)c23)C1 (single isomer, unassigned) [Example 11] | 0.01 to 0.1 | > 0.1 | > 1 | > 1 | – | –
6 | C=CC(=O)N1CCC[C@@H](Nc2ncnc3[nH]cc(C(=O)[C@@H]4CCOC4)c23)C1 (single isomer, unassigned) [Example 12] | ≤ 0.01 | 0.01 to 0.1 | > 1 | > 1 | – | –
7 | C=CC(=O)N1CCC[C@@H](Nc2ncnc3[nH]cc([C@H]4C[C@@H]4COC)c23)C1 (single isomer, unassigned) [Example 25] | ≤ 0.01 | 0.01 to 0.1 | 0.1 to 1 | – | > 1 | –
8 | C=CC(=O)N1CCC[C@@H](Nc2ncnc3[nH]cc([C@H]4C[C@@H]4COC)c23)C1 (single isomer, unassigned) [Example 26] | ≤ 0.01 | ≤ 0.01 | – | – | 0.1 to 1 | ≤ 0.1
9 | C=CC(=O)N1C[C@@H](Nc2ncnc3[nH]cc(CC4CC4)c23)CC[C@H]1CC (single isomer, unassigned) [Example 39] | ≤ 0.01 | ≤ 0.01 | 0.1 to 1 | 0.1 to 1 | – | –
10 | C=CC(=O)N1C[C@H](Nc2ncnc3[nH]cc([C@H]4C(C)(C)C4(F)F)c23)CC[C@@H]1C (single isomer, unassigned) [Example 53] | ≤ 0.01 | – | 0.1 to 1 | ≤ 0.1 | – | –
11 | C=CC(=O)N1CCC[C@@H](Nc2ncnc3[nH]cc([C@@]45CCC[C@@H]4C5(F)F)c23)C1 (single isomer, unassigned) [Example 79, 1-((R)-3-((5-((1R,5S)-6,6-difluorobicyclo[3.1.0]hexan-1-yl)-7H-pyrrolo[2,3-d]pyrimidin-4-yl)amino)piperidin-1-yl)prop-2-en-1-one] | ≤ 0.01 | – | – | – | – | –
12 | C=CC(=O)N1CCC[C@@H](Nc2ncnc3[nH]cc([C@@]45CCC[C@@H]4C5(F)F)c23)C1 (single isomer, unassigned) [Example 79] | – | ≤ 0.01 | 0.1 to 1 | 0.1 to 1 | – | –
13 | C=CC(=O)N1C[C@H](Nc2ncnc3[nH]cc(C(=O)C(F)(F)F)c23)CC[C@@H]1C [Example 33, 1-((2S,5R)-2-methyl-5-((5-(2,2,2-trifluoroacetyl)-7H-pyrrolo[2,3-d]pyrimidin-4-yl)amino)piperidin-1-yl)prop-2-en-1-one] | ≤ 0.01 | 0.01 to 0.1 | 0.1 to 1 | – | – | –
